We go through 3 substances from publication PMC12563087, “Preparation, Stability and In Vitro Antineoplastic Function of Lecithin–Chitosan–Polyethylene Glycol Nanoparticles Loaded with Bioactive Peptides Derived from Phycocyanin” (Foods, 2025).

Ends that are not written are not given here.

The test system of this data set is pepsin. Briefly: In vitro simulated gastric digestion (pepsin) of PCPs and PCP-loaded NPs. Format: in vitro ADME. Conditions: after 20 min of in vitro simulated gastric digestion by pepsin; mean ± SD.
Turning to AGDASVLEDR [PCP1], the degradation rate is on record as 78.82% ± 3.46%.
The result for ADSLLSGLR [PCP2] reads 71.65% ± 2.99%; that for MFDAFTK [PCP3], 77.24% ± 1.72%.
